# Results: PMC10708960 (Computational and Structural Biotechnology Journal, 2023)
# Legend:
# c-Met = details: no reference given; cited from earlier work
# c-Src = c-Src (Gallus gallus, UniProt P00523); experiment: biochemical; set-up: species or system Chicken
# [1] = system: c-Met mutations of D1228 and Y1230; details: cited from earlier work; for affinity against mutations of D1228 and Y1230: type I inhibitors, Fig. S10
# [2] = system: c-Met mutations of L1195 and F1200; details: type I inhibitors; Fig. S10; cited from earlier work
# c-Met F1200I mutant = details: Fig. S10; cited from earlier work
SMILES,activity against mutations of L1195 and F1200 [2],affinity against mutations of D1228 and Y1230 [1],other results
C[C@H]1CNC(=O)c2cnn3ccc(nc23)N[C@H](C)c2cc(F)ccc2O1 [TPX-0005],,,affinity for c-Met (c-Met): low affinity
CCN1Cc2c(ccc(F)c2C#N)O[C@@H](C)CNC(=O)c2c(N)nn3ccc1nc23 [TPX-0022],,,IC50 (c-Src): 3.7 nM
COc1cc2nccc(Oc3ccc(NC(=O)C4(C(=O)Nc5ccc(F)cc5)CC4)cc3)c2cc1OC [cabozantinib],,,ability to overcome mutations of D1228 and Y1230 ([1]; type II inhibitor): could overcome
CNC(=O)c1ccc(-c2cnc3ncc(Cc4ccc5ncccc5c4)n3n2)cc1F [capmatinib],potent activity,low affinity,
C[C@@H](Oc1cc(-c2cnn(C3CCNCC3)c2)cnc1N)c1c(Cl)ccc(F)c1Cl [crizotinib],,,potency for the F1200I mutant (c-Met F1200I mutant): 50 to 200 nM
C[C@@H](c1ccc2nccn2c1)n1nnc2ncc(-c3cnn(C)c3)nc21 [savolitinib],potent activity,low affinity,
CN1CCC(COc2cnc(-c3cccc(Cn4nc(-c5cccc(C#N)c5)ccc4=O)c3)nc2)CC1 [tepotinib],potent activity,low affinity,
